In test [1] the target is Caspase-8 (Homo sapiens, UniProt Q14790). Kind of test: Inhibition of human recombinant caspase 8 expressed in Escherichia coli.
Test [2] is described as follows: Inhibition of bovine alpha chymotrypsin. Set-up: species or system Bos taurus.
The target of test [3] is Cathepsin B (Bos taurus, UniProt P07688). Kind of test: Inhibition of bovine Cathepsin B.
A short description of test [4]: Inhibition of porcine trypsin. Also on record: species or system Sus scrofa.

pIC50: −log10 of the molar value. Peptide text beside a SMILES is read from it.

Caspase-8, sequence (Q14790 217-374 limits assumed): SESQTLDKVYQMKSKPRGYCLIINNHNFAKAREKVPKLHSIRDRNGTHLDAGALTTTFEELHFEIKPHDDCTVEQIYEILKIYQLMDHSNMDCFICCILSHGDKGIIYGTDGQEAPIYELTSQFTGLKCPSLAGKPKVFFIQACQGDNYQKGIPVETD
Caspase-8, sequence (Q14790 385-479 limits assumed): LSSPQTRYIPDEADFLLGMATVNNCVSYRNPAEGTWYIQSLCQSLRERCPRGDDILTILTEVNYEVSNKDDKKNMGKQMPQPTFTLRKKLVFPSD

For the molecule `CSCC[C@@H]1NC(=O)[C@H](C(C)C)NC(=O)[C@H](CC(C)C)NC(=O)CNC(=O)[C@@H]2CCCN2C(=O)[C@H](C(C)C)NC(=O)CNC(=O)[C@H](Cc2ccccc2)NC1=O` [PLANKTOCYCLIN] (cyclo(FGVPGLVM)), the pIC50 was 4.03 in test [1], 5.00 in test [2], below 3.30 in test [3] and 6.98 in test [4].

The record behind these values is ChEMBL document CHEMBL1141327, “Planktocyclin, a cyclooctapeptide protease inhibitor produced by the freshwater cyanobacterium Planktothrix rubescens” (J Nat Prod, 2007).
